# Tested on: inside of the forearm
# Test: Skin conductance with time after water supply to the site treated with emollient milk
# Format: in vivo, human
# Conditions: conclusion from Tables 5 and 6; conductance on forearm after water supply
# Experimental: Each of the emollient milks described in Table 3 was applied to the inside of the forearm in the same manner in Test Example 2, and dried for 30 minutes. A drop of distilled water was placed on that site to conduct water supply for 10 seconds, followed by wiping off. Then, the conductance values were measured with time for 15 minutes (n=3).
# Process: Emollient milks having the same components as described in Table 3 with the exception that 3-(menthoxy)propane-1,2-diol was substituted by p-menthane-3,8-diol were prepared (Example 3 and Comparative Example 3). Each was applied to the inside of the forearm in an amount of 65 mg/cm^2, and evaluated in the same manner as in Test Example 3.
smiles,measurement,value
"CC1CCC(C(C)(C)O)C(O)C1 (stereo not shown) [p-menthane-3,8-diol]",water-retention function (in words),excellent water-retention function
